Key:
Format in all cases: in vivo
[1] = test system: Echinochloa crus-galli (ECHCG); experiment: Post-emergence biological efficacy (Example 14); details: post-emergence, 1,000 g/ha, after 13 days; for pest or weed control at 1000 g/ha: Echinochloa crus-galli, 312 h, read-out: Percentage damage ECHCG
Procedure: (§1) Seeds of Alopecurus myosuroides (ALOMY), Setaria faberi (SETFA), Echinochloa crus-galli (ECHCG), Solanum nigrum (SOLNI), Amaranthus retroflexus (AMARE) and Ipomea hederaceae (IPOHE) were sown in standard soil in pots. After cultivation for 8 days under controlled conditions in a glasshouse (at 24/16° C., day/night; 14 hours light; 65% humidity), the plants were sprayed with an aqueous spray solution derived from the formulation of the technical active ingredient in acetone/water (50:50) solution containing 0.5% Tween 20 (polyoxyethylene sorbitan monolaurate, CAS RN 9005-64-5) to give a final dose of 250 or 1000 g/ha of test compound. The test plants were then grown on under controlled conditions in a glasshouse (at 24/16° C., day/night; 14 hours light; 65% humidity) and watered twice daily. After 13 days the test was evaluated (100=total damage to plant; 0=no damage to plant).

[2] = test system: Alopecurus myosuroides (ALOMY); experiment: Post-emergence biological efficacy (Example 14); details: post-emergence, 1,000 g/ha, after 13 days; for pest or weed control at 1000 g/ha: Alopecurus myosuroides, 312 h, read-out: Percentage damage ALOMY
Procedure: as §1

[3] = test system: Ipomea hederaceae (IPOHE); experiment: Post-emergence biological efficacy (Example 14); details: post-emergence, 1,000 g/ha, after 13 days; for pest or weed control at 1000 g/ha: Ipomoea hederacea, 312 h, read-out: Percentage damage IPOHE
Procedure: as §1

[4] = test system: Solanum nigrum (SOLNI); experiment: Post-emergence biological efficacy (Example 14); details: post-emergence, 1,000 g/ha, after 13 days; for pest or weed control at 1000 g/ha: Solanum nigrum, 312 h, read-out: Percentage damage SOLNI
Procedure: as §1

[5] = test system: Setaria faberi (SETFA); experiment: Post-emergence biological efficacy (Example 14); details: post-emergence, 1,000 g/ha, after 13 days; for pest or weed control at 1000 g/ha: Setaria faberi, 312 h, read-out: Percentage damage SETFA
Procedure: as §1

[6] = test system: Amaranthus retroflexus (AMARE); experiment: Post-emergence biological efficacy (Example 14); details: post-emergence, 1,000 g/ha, after 13 days; for pest or weed control at 1000 g/ha: Amaranthus retroflexus, 312 h, read-out: Percentage damage AMARE
Procedure: as §1

[7] = test system: Echinochloa crus-galli (ECHCG); experiment: Pre-emergence biological efficacy (Example 13); details: pre-emergence, 1,000 g/ha, after 13 days; for pest or weed control at 1000 g/ha: Echinochloa crus-galli, 312 h, read-out: Percentage damage ECHCG
Procedure: (§2) Seeds of Alopecurus myosuroides (ALOMY), Setaria faberi (SETFA), Echinochloa crus-galli (ECHCG), Solanum nigrum (SOLNI), Amaranthus retroflexus (AMARE) and Ipomea hederaceae (IPOHE) were sown in standard soil in pots. After cultivation for one day under controlled conditions in a glasshouse (at 24/16° C., day/night; 14 hours light; 65% humidity), the plants were sprayed with an aqueous spray solution derived from the formulation of the technical active ingredient in acetone/water (50:50) solution containing 0.5% Tween 20 (polyoxyethylene sorbitan monolaurate, CAS RN 9005-64-5) to give a final dose of 250 or 1000g/ha of test compound. The test plants were then grown under controlled conditions in the glasshouse (at 24/16° C., day/night; 14 hours light; 65% humidity) and watered twice daily. After 13 days the test was evaluated (100 =total damage to plant; 0 =no damage to plant).

[8] = test system: Alopecurus myosuroides (ALOMY); experiment: Pre-emergence biological efficacy (Example 13); details: pre-emergence, 1,000 g/ha, after 13 days; for pest or weed control at 1000 g/ha: Alopecurus myosuroides, 312 h, read-out: Percentage damage ALOMY
Procedure: as §2

[9] = test system: Ipomea hederaceae (IPOHE); experiment: Pre-emergence biological efficacy (Example 13); details: pre-emergence, 1,000 g/ha, after 13 days; for pest or weed control at 1000 g/ha: Ipomoea hederacea, 312 h, read-out: Percentage damage IPOHE
Procedure: as §2

[10] = test system: Solanum nigrum (SOLNI); experiment: Pre-emergence biological efficacy (Example 13); details: pre-emergence, 1,000 g/ha, after 13 days; for pest or weed control at 1000 g/ha: Solanum nigrum, 312 h, read-out: Percentage damage SOLNI
Procedure: as §2

[11] = test system: Setaria faberi (SETFA); experiment: Pre-emergence biological efficacy (Example 13); details: pre-emergence, 1,000 g/ha, after 13 days; for pest or weed control at 1000 g/ha: Setaria faberi, 312 h, read-out: Percentage damage SETFA
Procedure: as §2

[12] = test system: Amaranthus retroflexus (AMARE); experiment: Pre-emergence biological efficacy (Example 13); details: pre-emergence, 1,000 g/ha, after 13 days; for pest or weed control at 1000 g/ha: Amaranthus retroflexus, 312 h, read-out: Percentage damage AMARE
Procedure: as §2

C/C=C/c1c(N)nc(-c2ccc(Cl)c(N(C)C)c2F)nc1C(=O)OC [Compound 12, (E)-4-Amino-2-(4-chloro-3-dimethylamino-2-fluorophenyl)-6-methoxy-carbonyl-5-(prop-1-enyl)-pyrimidine]
pest or weed control at 1000 g/ha [1]: 80%
pest or weed control at 1000 g/ha [2]: 80%
pest or weed control at 1000 g/ha [3]: 40%
pest or weed control at 1000 g/ha [4]: 80%
pest or weed control at 1000 g/ha [5]: 80%
pest or weed control at 1000 g/ha [6]: 100%
pest or weed control at 1000 g/ha [7]: 90%
pest or weed control at 1000 g/ha [8]: 70%
pest or weed control at 1000 g/ha [9]: 0%
pest or weed control at 1000 g/ha [10]: 80%
pest or weed control at 1000 g/ha [11]: 80%
pest or weed control at 1000 g/ha [12]: 100%

C=Cc1c(NCc2ccco2)nc(-c2ccc(Cl)c(N(C)C)c2F)nc1C(=O)OC [Compound 13, 2-(4-Chloro-3-dimethylamino-2-fluorophenyl)-5-ethenyl-4-(furan-2-ylmethylamino)-6-methoxycarbonyl-pyrimi-dine]
pest or weed control at 1000 g/ha [1]: 80%
pest or weed control at 1000 g/ha [2]: 70%
pest or weed control at 1000 g/ha [3]: 40%
pest or weed control at 1000 g/ha [4]: 100%
pest or weed control at 1000 g/ha [5]: 80%
pest or weed control at 1000 g/ha [6]: 100%
pest or weed control at 1000 g/ha [7]: 90%
pest or weed control at 1000 g/ha [8]: 70%
pest or weed control at 1000 g/ha [9]: 20%
pest or weed control at 1000 g/ha [10]: 90%
pest or weed control at 1000 g/ha [11]: 60%
pest or weed control at 1000 g/ha [12]: 90%

C=Cc1c(NCc2ccccc2F)nc(-c2ccc(Cl)c(OC)c2F)nc1C(=O)OC [Compound 14, 2-(4-Chloro-2-fluoro-3-methoxyphenyl)-5-ethenyl-4-(2-fluorophenylmethylamino)-6-methoxycarbonyl-pyrimi-dine]
pest or weed control at 1000 g/ha [1]: 0%
pest or weed control at 1000 g/ha [2]: 0%
pest or weed control at 1000 g/ha [3]: 60%
pest or weed control at 1000 g/ha [4]: 90%
pest or weed control at 1000 g/ha [5]: 0%
pest or weed control at 1000 g/ha [6]: 100%
pest or weed control at 1000 g/ha [7]: 0%
pest or weed control at 1000 g/ha [8]: 0%
pest or weed control at 1000 g/ha [9]: 50%
pest or weed control at 1000 g/ha [10]: 60%
pest or weed control at 1000 g/ha [11]: 0%
pest or weed control at 1000 g/ha [12]: 20%

C=Cc1c(NCc2ccccc2[N+](=O)[O-])nc(-c2ccc(Cl)c(OC)c2F)nc1C(=O)OC [Compound 15, 2-(4-Chloro-2-fluoro-3-methoxyphenyl)-5-ethenyl-6-methoxycarbonyl-4-(2-nitrophenylmethyl-amino)-pyrimidine]
pest or weed control at 1000 g/ha [1]: 90%
pest or weed control at 1000 g/ha [2]: 70%
pest or weed control at 1000 g/ha [3]: 90%
pest or weed control at 1000 g/ha [4]: 90%
pest or weed control at 1000 g/ha [5]: 70%
pest or weed control at 1000 g/ha [6]: 100%
pest or weed control at 1000 g/ha [7]: 70%
pest or weed control at 1000 g/ha [8]: 50%
pest or weed control at 1000 g/ha [9]: 100%
pest or weed control at 1000 g/ha [10]: 100%
pest or weed control at 1000 g/ha [11]: 0%
pest or weed control at 1000 g/ha [12]: 100%

C=Cc1c(NCc2ccccc2[N+](=O)[O-])nc(-c2ccc(Cl)c(N(C)C)c2F)nc1C(=O)OC [Compound 16, 2-(4-Chloro-3-dimethylamino-2-fluorophenyl)-5-ethenyl-6-methoxycarbonyl-4-(2-nitrophenylmethyl-amino)-pyrimidine]
pest or weed control at 1000 g/ha [1]: 70%
pest or weed control at 1000 g/ha [2]: 70%
pest or weed control at 1000 g/ha [3]: 60%
pest or weed control at 1000 g/ha [4]: 80%
pest or weed control at 1000 g/ha [5]: 90%
pest or weed control at 1000 g/ha [6]: 100%
pest or weed control at 1000 g/ha [7]: 70%
pest or weed control at 1000 g/ha [8]: 60%
pest or weed control at 1000 g/ha [9]: 0%
pest or weed control at 1000 g/ha [10]: 30%
pest or weed control at 1000 g/ha [11]: 70%
pest or weed control at 1000 g/ha [12]: 50%

C=Cc1c(NC2CCC2)nc(-c2ccc(Cl)c(OC)c2F)nc1C(=O)OC [Compound 24, 2-(4-Chloro-2-fluoro-3-methoxyphenyl)-4-cyclobutylamino-5-ethenyl-6-methoxycarbonyl pyrimidine]
pest or weed control at 1000 g/ha [1]: 40%
pest or weed control at 1000 g/ha [2]: 10%
pest or weed control at 1000 g/ha [3]: 70%
pest or weed control at 1000 g/ha [4]: 90%
pest or weed control at 1000 g/ha [5]: 10%
pest or weed control at 1000 g/ha [6]: 100%
pest or weed control at 1000 g/ha [7]: 50%
pest or weed control at 1000 g/ha [8]: 10%
pest or weed control at 1000 g/ha [9]: 80%
pest or weed control at 1000 g/ha [10]: 80%
pest or weed control at 1000 g/ha [11]: 0%
pest or weed control at 1000 g/ha [12]: 100%

C=Cc1c(NCc2ccco2)nc(-c2ccc(Cl)c(OC)c2F)nc1C(=O)O [Compound 35, 2-(4-Chloro-2-fluoro-3-methoxyphenyl)-5-ethenyl-4-(furan-2-ylmethylamino)-pyrimidine-6-carboxylic acid]
pest or weed control at 1000 g/ha [1]: 80%
pest or weed control at 1000 g/ha [2]: 70%
pest or weed control at 1000 g/ha [3]: 70%
pest or weed control at 1000 g/ha [4]: 90%
pest or weed control at 1000 g/ha [5]: 80%
pest or weed control at 1000 g/ha [6]: 100%
pest or weed control at 1000 g/ha [7]: 90%
pest or weed control at 1000 g/ha [8]: 70%
pest or weed control at 1000 g/ha [9]: 100%
pest or weed control at 1000 g/ha [10]: 100%
pest or weed control at 1000 g/ha [11]: 90%
pest or weed control at 1000 g/ha [12]: 100%

C=Cc1c(N)nc(-c2ccc(Cl)c(N(C)C)c2F)nc1C(=O)OCCCCCCCC [Compound 41, 4-Amino-2-(4-chloro-3-dimethylamino-2-fluorophenyl)-5-ethenyl-6- ^noctyloxycarbonyl-pyrimidine]
Percentage damage ECHCG [1]: 80%
Percentage damage ALOMY [2]: 70%
Percentage damage IPOHE [3]: 80%
Percentage damage SOLNI [4]: 90%
Percentage damage SETFA [5]: 60%
Percentage damage AMARE [6]: 100%
Percentage damage ECHCG [7]: 100%
Percentage damage ALOMY [8]: 70%
Percentage damage IPOHE [9]: 0%
Percentage damage SOLNI [10]: 80%
Percentage damage SETFA [11]: 90%
Percentage damage AMARE [12]: 100%

C=Cc1c(N)nc(-c2ccc(Cl)c(N(C)C)c2F)nc1C(=O)OCCOCCCC [Compound 46, 4-Amino-6-(2- ^nbutoxy-ethoxy)carbonyl-2-(4-chloro-3-dimethylamino-2-fluorophenyl)-5-ethenyl-pyrimidine]
Percentage damage ECHCG [1]: 90%
Percentage damage ALOMY [2]: 80%
Percentage damage IPOHE [3]: 80%
Percentage damage SOLNI [4]: 90%
Percentage damage SETFA [5]: 90%
Percentage damage AMARE [6]: 100%
Percentage damage ECHCG [7]: 100%
Percentage damage ALOMY [8]: 80%
Percentage damage IPOHE [9]: 50%
Percentage damage SOLNI [10]: 100%
Percentage damage SETFA [11]: 90%
Percentage damage AMARE [12]: 100%

C=Cc1c(NCc2ccco2)nc(-c2ccc(Cl)c(OC)c2F)nc1C(=O)OCc1ccccc1 [Compound 47, 2-(4-Chloro-2-fluoro-3-methoxyphenyl)-5-ethenyl-4-(furan-2-ylmethylamino)-6-phenylmethoxy-carbonyl-pyrimidine]
pest or weed control at 1000 g/ha [1]: 80%
pest or weed control at 1000 g/ha [2]: 60%
pest or weed control at 1000 g/ha [3]: 80%
pest or weed control at 1000 g/ha [4]: 80%
pest or weed control at 1000 g/ha [5]: 80%
pest or weed control at 1000 g/ha [6]: 100%
pest or weed control at 1000 g/ha [7]: 90%
pest or weed control at 1000 g/ha [8]: 30%
pest or weed control at 1000 g/ha [9]: 80%
pest or weed control at 1000 g/ha [10]: 80%
pest or weed control at 1000 g/ha [11]: 50%
pest or weed control at 1000 g/ha [12]: 70%
